Experimental data published in patent publication US10139420B2, “Methods for treating vaso-occlusive crisis using non-modified annexin V” (ISNERM (Institut National de la Sante et de la Recherche …, priority 2011, dated 2018).
“Also recorded” adds a separate entry of the source.

Legend:
[1] = tested on: SAD mice; assay: Circulating PS+ MP in platelet-free plasma by FACS (annexin-V labeling), SAD mice; format: in vivo, mouse; conditions: injected to mice, compared with whole TSP1
Procedure: We characterized the induction of VOC in SAD transgenic mice (18, 19) according to our previously published method, in response to the intravenous administration of TSP1 (1 mg/kg), TSP1-derived peptides 4N1-1 or 4N1-2, or purified erythrocyte MP. Briefly, mice were anesthetized with isoflurane and monitored to prevent any cardiorespiratory depression. Mice were shaved and placed in the decubitus position on a heating blanket (38° C.). We used a Vivid 7 echograph (GE Medical Systems®, Horten, Norway) equipped with a 12-MHz linear transducer (12 L). […] A pulsed Doppler spectrum was recorded and peak systolic, end-diastolic and time-average mean BFV were measured in the renal artery, with Doppler beam angle correction. To calculate cardiac output, spatial flow profiles were analyzed in parasternal long-axis B-mode images of the pulmonary artery and BFV were measured as above. […] Circulating MP were quantified by FACS.
Netherlands) in the absence or presence of TSP1 (25 μg/ml), or TSP1-derived peptides 4N1-1 or 4N1-2 (25 μM). […] Erythrocytes were immediately separated and supernatant PS^+ MP quantified by FACS. […] MP concentrations were determined as previously described (20). […] MP were analyzed on a Coulter EPICS XL flow cytometer (Beckman Coulter). […] MP-size events were analyzed in FL/FSC fluorescence dot plots to determine annexin-V labeling. […]

[2] = tested on: wild type mouse erythrocytes; assay: Echinocyte conversion and MP shedding by isolated erythrocytes (LORCA ektacytometer, microscopy, FACS), wild type; format: cell-based; conditions: for increase in MP shedding in wild type erythrocytes: peptides 25 μM, versus control peptides
Procedure: (§1) Mouse blood was obtained through retro-orbital sinus puncture, mixed with anti-coagulant heparin buffer (5 UI/ml), and collected on citrated tubes. Blood diluted 1:1 with PBS (Gibco-Life Sciences) was placed onto histopaque-1083 (Sigma) density gradients for centrifugation (600 g, 25 minutes). Erythrocyte pellets were resuspended, washed in DMEM and stored for up to 4 hours at room temperature. Erythrocyte surface CD47 expression was assessed by FACS. Fresh RBC were washed and blocked with PBS-BSA 5% for 30 min and immunoreacted with mouse-specific fluoroisothiocyanate (FITC)-coupled anti-CD47 monoclonal antibody (clone mIAP301; BD Biosciences, Le Pont de Claix, France), or matched irrelevant IgG2aκ isotype for 45 min in 2% PBS-BSA. Erythrocytes were washed in PBS-BSA 2% prior to FACS analysis. Erythrocyte phenotypes were analyzed by […] electronic microscopy. Briefly, mouse erythrocytes were fixed with glutaraldehyde 1% and paraformaldehyde 4%, dehydrated and embedded in Epon™ epoxy resin. Sections contrasted with uranyl acetate and lead citrate were examined with a JEOL JEM 1010 microscope. Average apparent spicule number was determined by direct counting in 80 to 120 cells per condition.
(§2) To trigger MP shedding, erythrocyte were suspended in polyvinylpyrrolidone (31 mPa.s) and placed in a rotating type LORCA ektacytometer (R&R Mechatronics, Hoorn, The
(§3) Netherlands) in the absence or presence of TSP1 (25 μg/ml), or TSP1-derived peptides 4N1-1 or 4N1-2 (25 μM). Shear rate was applied according to the builder's program (1500 s^−1; 2.5 minutes). Erythrocytes were immediately separated and supernatant PS^+ MP quantified by FACS. Concentrated MP stocks were generated from 10 to 20 ml of supernatant from erythrocytes suspended in RPMI-1640 (4.10^6/ml) and treated with 4N1-1. Suspensions were centrifuged at 400 g for 15 min to discard cells, and ultracentrifuged at 20500 g for 45 min to pellet MP, which were resuspended in filtered (0.2 μm) DMEM and stored at −80° C. MP concentrations were determined as previously described (20). Briefly, MP were labeled with 2 μl FITC-conjugated annexin-V (Roche Diagnostics, France) diluted in 100 μl reaction buffer with 5 mM CaCl2. CaCl2 was omitted in negative controls. MP were analyzed on a Coulter EPICS XL flow cytometer (Beckman Coulter). MP were identified in forward light scatter (FSc) and side-angle light scatter (SSc) intensity dot plots set at logarithmic gain, as events of 0.1-1 μm in diameter. MP-size events were analyzed in FL/FSC fluorescence dot plots to determine annexin-V labeling. MP concentration was determined with respect to calibrated fluorescent microbeads (Flowcount). To determine erythrocyte origin, MP were double labeled with rat PE-Cy7-coupled mouse-specific anti-Ter119 antibody (Biolegend via Ozyme, France), or matched irrelevant IgG2bκ isotype.

[3] = tested on: SAD mouse erythrocytes; assay: Echinocyte conversion and MP shedding by isolated erythrocytes (LORCA ektacytometer, microscopy, FACS), SAD; format: cell-based; conditions: for raise in MP shedding in SAD erythrocytes: peptides 25 μM, versus control peptides
Procedure: as §1, §2, §3

[4] = tested on: SV40-transformed mouse lymph node endothelial cells (SVEC4-10); assay: Endothelial ROS production (H2DFF-DA assay); format: cell-based
Procedure: SV40-transformed mouse lymph node endothelial cells (SVEC4-10 from ATCC) were obtained from LGC Promochem, France and grown in Dulbecco's Modified Eagle Medium (DMEM) supplemented with 20% neonatal calf serum (NCS; Dominique Dutscher) in 24 well plaques at 37° C. with 5% CO2. Confluent SVEC monolayers in 96 well plates were incubated with 25 MP/μl for up to 2 h. To determine ROS production, 5-(6-)Carboxy-2′,7′-difluorodihydrofluorescein diacetate (H2DFF-DA; 10 μM), was supplemented to the medium for the last 30 minutes, and fluorescence was read in an automated fluorescence plate reader. For erythrocyte adhesion experiments, MP-primed SVEC monolayers were washed and incubated with RBC suspensions in DMEM (1.10^6 RBC/ml). Supernatant cells were discarded after 30 min, and adherent cells were counted by phase contrast microscopy in 5 random fields per well (400×). All conditions were tested 3 to 6 times, in triplicates. In cell cycle analysis, SVEC were cultured up to 70% confluency, washed and placed in DMEM with 0.05% NCS with or without RBC MP. After 16 hours, SVEC were trypsinized, fixed overnight in ice-cold 70% ethanol-H20, and incubated in 0.05% Triton X100, 100 μg/ml RNase A plus 50 μg/ml propidium iodide for 1 h in the dark. Total DNA content was determined by FACS. DNA profiles were divided as sub-G1 (apoptosis), G0/G1 (resting) and G2/M (proliferation) phases of the cell cycle. Data shown is the mean percentage of cells in each phase, in 3 to 6 independent experiments.

[5] = tested on: Mesenteric arteries; assay: Microvascular dilation of perfused mesenteric resistance arteries (pressure myograph); set-up: species or system mouse
Procedure: Mesenteric arteries were removed from terminally anesthetized mice and placed them in ice-cold physiological salt solution (PSS). 4-6 arterial segments from each mouse were used. A segment of mesenteric artery was cannulated and mounted in a video-monitored perfusion system as described (21). Arterial segments were bathed in a 5 ml organ bath containing a PSS maintained at pH 7.4, with pO2 and pCO2 of 160 mm Hg and 37 mm Hg, respectively. Arterial diameter was continuously recorded by video (Living System Instrumentation Inc., Burlington, Vt.). Pressure and flow rates could be changed independently. Diameter changes were measured in each segment when the intraluminal pressure was set at 75 mm Hg in order to measure dilation. Artery viability was tested with potassium-rich solution ([…]; PSS). The endothelium was considered functional when 80% relaxation was obtained with 10^−6 acetylcholine (ACH), after phenylephrine (PE)-induced preconstriction (50% of maximal contraction with KCl 80 mM). A cumulative concentration-response curve to ACH (10^−7-10^−4 M) was constructed after preconstriction. Sodium nitroprusside (SNP, 100 μM) was tested after the ACH curve. Intraluminal flow was then increased to 21 μl/minute and MP were injected in the vessel. A new cumulative concentration-response curve to ACH after was constructed after new PE-induced preconstriction. […]

[6] = tested on: SAD transgenic mice; assay: Vaso-occlusive crises in mice: renal artery blood flow velocity by Echo-Doppler, cardiac output, renal histology; format: in vivo, mouse; conditions: SAD RBC MP pre-incubated with annexin-V and washed, 300.10^3 MP/mouse
Procedure: We characterized the induction of VOC in SAD transgenic mice (18, 19) according to our previously published method, in response to the intravenous administration of TSP1 (1 mg/kg), TSP1-derived peptides 4N1-1 or 4N1-2, or purified erythrocyte MP. Briefly, mice were anesthetized with isoflurane and monitored to prevent any cardiorespiratory depression. Mice were shaved and placed in the decubitus position on a heating blanket (38° C.). We used a Vivid 7 echograph (GE Medical Systems®, Horten, Norway) equipped with a 12-MHz linear transducer (12 L). The ultrasound probe was placed on the left side of the abdomen for examination of renal arteries, or in left lateral decubitus for cardiac output acquisition with transducer on the chest. Data were transferred on-line to an EchoPAC ultrasound image analysis workstation (GE Medical Systems®). Two-Dimensional ultrasound imaging of the abdomen in left-sided longitudinal B-mode allowed kidney width and height measurements. Color-coded blood flow detection by Doppler enabled renal arteries to be localized. A pulsed Doppler spectrum was recorded and peak systolic, end-diastolic and time-average mean BFV were measured in the renal artery, with Doppler beam angle correction. To calculate cardiac output, spatial flow profiles were analyzed in parasternal long-axis B-mode images of the pulmonary artery and BFV were measured as above. The following formula was applied: CO=[(V^mean·60)·(π·(Dpa/2^2)], where CO is the cardiac output in ml/minute, V^mean is the mean time-averaged BFV in cm/s and Dpa is the pulmonary artery diameter in cm. Kidney sizes and BFV were determined by the same investigator, as means of 5 to 8 measurements. Repeatability for cardiac output measurements was verified. We controlled and confirmed that kidney size was similar between SAD and wild type mice. After sacrifice, kidneys were dissected, dehydrated, mounted in paraffin, sectioned and stained by Masson trichrome. Vascular congestion was observed by phase-contrast microscopy, as large erythrocyte aggregates occluding kidney capillaries and larger vessels. In some experiments, TSP1 (1 mg/kg) or control BSA (1 mg/kg) were injected. After 5 minutes, mice were terminally anesthetized by pentobarbital overdose. Whole blood was collected through cardiac puncture, centrifuged (400 g, 15 minutes) to eliminate erythrocytes and leukocytes, and double centrifuged (12500 g, 5 minutes) to eliminate platelets with minimal activation. Supernatants were considered platelet-free plasma (PFP). Circulating MP were quantified by FACS.
We evaluated the concept that TSP1 influences VOC during SCD in vivo. We used SAD transgenic mice that express a mutated human hemoglobin β-chain known to cause sickle cell formation and sensitivity to VOC (18, 19).

[7] = scanning electron microscopy, after peptide treatment
[8] = endothelial NOS blocked, L-NAME 100 μM, enantiomer D-NAME as control
[9] = endothelial PKC activity inhibited, 1 μM

## 4N1-1: Synthetic TSP1 carboxyterminal peptide RFYVVMWK (SEQ ID NO:1), CD47 agonist (4N1-1)
[1]
  effects on circulating PS+ MP after injection of the peptide: comparable to whole TSP1
[2]; peptide 25 μM
  echinocytosis: change in wild type echinocytes: doubling
[2]; [7]
  spicule numbers in healthy wild type erythrocytes: not in healthy wild type erythrocytes
[3]; SAD erythrocytes, TSP1 or peptide
  effect on sickle cells: did not affect sickle cells
[3]; [7]
  increase in spicule numbers in SAD RBC: 20%
[3]; under shear, TSP1 (25 μg/ml) or peptide (25 μM), vs control
  increase in SAD echinocytes: 50%

## 4N1-2: Synthetic truncated control peptide RFYVVM (SEQ ID NO:2) (4N1-2)
[2]
  increase in MP shedding in wild type erythrocytes: no effect
[3]
  raise in MP shedding in SAD erythrocytes: no effect

## 4NGG: Mutated control peptide RFYGGMWK (SEQ ID NO:3) devoid of the VVM motif (4NGG)
[2]
  increase in MP shedding in wild type erythrocytes: no effect
[3]
  raise in MP shedding in SAD erythrocytes: no effect

## COC(=O)[C@H](N)CCCN=C(N)N[N+](=O)[O-] [D-NAME]
[4]; [8]
  ROS generation induced by SAD RBC MP: had no effects

## c1ccc2c(c1)[I+]c1ccccc1-2 [DPI]
[4]; endothelial NADPH oxydase blocked, 10 μM, 30 minutes
  ROS generation induced by SAD RBC MP: prevented

## Cn1c2ccccc2c2c3c(c4c5ccccc5n(CCC#N)c4c21)C(=O)NC3 [Gö-6976]
[4]; [9]
  ROS generation induced by SAD RBC MP: prevented

## COC(=O)[C@@H](N)CCCNC(=N)N[N+](=O)[O-] [L-NAME]
[4]; [8]
  ROS generation induced by SAD RBC MP: entirely inhibited

## Cn1cc(C2=C(c3cn(CCCSC(=N)N)c4ccccc34)C(=O)NC2=O)c2ccccc21 [Ro-31-8220]
[4]; [9]
  ROS generation induced by SAD RBC MP: prevented

## CC1(C)CC(O)CC(C)(C)N1[O] [Tempol]
[5]; Tempol alone, vs control
  effect alone on vessel diameter: −5 % vessel diameter
[5]; vessel treated 10 μM, 30 minutes, vs MP alone
  reduction of the deleterious effects of SAD RBC MP on vasodilation: −50%

## COc1cc(C(C)=O)ccc1O [apocynin]
[4]; endothelial NADPH oxydase blocked, 100 μM, 30 minutes
  ROS generation induced by SAD RBC MP: prevented

B1: annexin-V: Recombinant protein that binds externalized phosphatidylserine in a calcium dependent manner (protein, UniProt P08758 2-320, looked up)
Annexin A5: AQVLRGTVTDFPGFDERADAETLRKAMKGLGTDEESILTLLTSRSNAQRQEISAAFKTLFGRDLLDDLKSELTGKFEKLIVALMKPSRLYDAYELKHALKGAGTNEKVLTEIIASRTPEELRAIKQVYEEEYGSSLEDDVVGDTSGYYQRMLVVLLQANRDPDAGIDEAQVEQDAQALFQAGELKWGTDEEKFITIFGTRSVSHLRKVFDKYMTISGFQIEETIDRETSGNLEQLLLAVVKSIRSIPAYLAETLYYAMKGAGTDDHTLIRVMVSRSEIDLFNIRKEFRKNFATSLYSMIKGDTSGDYKKALLLLCGEDD
[6]
  VOC parameters after injection of annexin-V-saturated SAD RBC MP: failed to modify VOC parameters
[6]; listed as Annexin-V
  VOC parameters after injection of annexin-V-saturated SAD RBC MP: abrogated the induction of VOC
[4]; MP PS previously saturated with recombinant annexin-V, 1 μg/ml for 1 hour
  ROS generation induced by SAD RBC MP: entirely inhibited; also recorded: prevented
